#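 How tested: cells in 96-well plates exposed to compound for 48 hours at five concentrations. TGI denotes the concentration required for complete inhibition of growth.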
# Legend:
# Experiment in all cases: NCI tumour cell line growth inhibition, 48 h
# [1] = system: KM12 colon
# [2] = system: TK-10 renal
# [3] = system: RXF 393 renal
# [4] = system: LXFL 529 NSCLC
# [5] = system: CCRF-CEM leukemia
# [6] = system: OVCAR-3 ovarian
# [7] = system: DLD-1 colon
# [8] = system: SW-620 colon
# [9] = system: NCI-H226 lung
# [10] = system: MALME-3M melanoma
# [11] = system: A549 NSCLC
# [12] = system: SK-MEL-2 melanoma
# [13] = system: OVCAR-8 ovarian
# [14] = system: M14 melanoma
# [15] = system: U251 CNS
# [16] = system: NCI-H23 lung
# [17] = system: SNB-75 CNS
# [18] = system: A498 renal
# [19] = system: SK-MEL-28 melanoma
# [20] = system: SF-295 CNS
# [21] = system: HOP-62 NSCLC
# [22] = system: SF-268 CNS
# [23] = system: SNB-78 CNS
# [24] = system: ACHN renal
# [25] = system: COLO 205 colon
# [26] = system: MOLT-4 leukemia
# [27] = system: LOX IMVI melanoma
# [28] = system: HOP-92 NSCLC
# [29] = system: KM20L2 colon
# [30] = system: HL-60(TB) leukemia
# [31] = system: SR leukemia
# [32] = system: RPMI-8226 leukemia
# [33] = system: SF-539 CNS
# [34] = system: RXF-631 renal
# [35] = system: 786-0 renal
# [36] = system: HOP-18 NSCLC
# [37] = system: UACC-62 melanoma
# [38] = system: SK-MEL-5 melanoma
# [39] = system: CAKI-1 renal
# [40] = system: OVCAR-5 ovarian
# [41] = system: NCI-H460 lung
# [42] = system: M19-MEL melanoma
# [43] = system: OVCAR-4 ovarian
# [44] = system: HCC-2998 colon
# [45] = system: SK-OV-3 ovarian
# [46] = system: UO-31 renal
# [47] = system: SNB-19 CNS
# [48] = system: IGROV1 ovarian
# [49] = system: HCT-15 colon
# [50] = system: UACC-257 melanoma
# [51] = system: HT29 colon
# [52] = system: DMS 114 small cell lung
# [53] = system: DMS 273 small cell lung
# [54] = system: EKVX NSCLC
# [55] = system: K-562 leukemia
# [56] = system: SN12C renal
# [57] = system: NCI-H522 lung
# [58] = system: XF 498 CNS
# [59] = system: HCT-116 colon
smiles,measurement,setting,value
Cn1c(=O)cc2[nH]c3ccccc3n2c1=O,TGI,[1],> 100 µM
same,TGI,[2],> 100 µM
same,TGI,[3],64.2 µM
same,TGI,[4],> 100 µM
same,TGI,[5],> 100 µM
same,TGI,[6],> 100 µM
same,TGI,[7],> 100 µM
same,TGI,[8],61.3 µM
same,TGI,[9],> 100 µM
same,TGI,[10],> 100 µM
same,TGI,[11],> 100 µM
same,TGI,[12],> 100 µM
same,TGI,[13],> 100 µM
same,TGI,[14],> 100 µM
same,TGI,[15],31.2 µM
same,TGI,[16],> 100 µM
same,TGI,[17],> 100 µM
same,TGI,[18],> 100 µM
same,TGI,[19],> 100 µM
same,TGI,[20],> 100 µM
same,TGI,[21],> 100 µM
same,TGI,[22],> 100 µM
same,TGI,[23],> 100 µM
same,TGI,[24],> 100 µM
same,TGI,[25],29.9 µM
same,TGI,[26],> 100 µM
same,TGI,[27],38.4 µM
same,TGI,[28],> 100 µM
same,TGI,[29],> 100 µM
same,TGI,[30],> 100 µM
same,TGI,[31],> 100 µM
same,TGI,[32],> 100 µM
same,TGI,[33],46.3 µM
same,TGI,[34],86.5 µM
same,TGI,[35],62.9 µM
same,TGI,[36],> 100 µM
same,TGI,[37],> 100 µM
same,TGI,[38],> 100 µM
same,TGI,[39],> 100 µM
same,TGI,[40],> 100 µM
same,TGI,[41],> 100 µM
same,TGI,[42],> 100 µM
same,TGI,[43],> 100 µM
same,TGI,[44],> 100 µM
same,TGI,[45],> 100 µM
same,TGI,[46],> 100 µM
same,TGI,[47],> 100 µM
same,TGI,[48],> 100 µM
same,TGI,[49],> 100 µM
same,TGI,[50],> 100 µM
same,TGI,[51],> 100 µM
same,TGI,[52],> 100 µM
same,TGI,[53],45.3 µM
same,TGI,[54],> 100 µM
same,TGI,[55],> 100 µM
CCOC(=N)CC(=O)Nc1ccccc1,TGI,[1],> 46.4 µM
same,TGI,[2],> 46.4 µM
same,TGI,[3],> 46.4 µM
same,TGI,[4],> 46.4 µM
same,TGI,[5],> 31.6 µM
same,TGI,[6],> 31.6 µM
same,TGI,[7],> 46.4 µM
same,TGI,[8],> 67.6 µM
same,TGI,[9],> 31.6 µM
same,TGI,[10],> 46.4 µM
same,TGI,[56],> 46.4 µM
same,TGI,[11],> 46.4 µM
same,TGI,[12],> 31.6 µM
same,TGI,[13],> 21.5 µM
same,TGI,[14],> 46.4 µM
same,TGI,[57],> 100 µM
same,TGI,[15],> 100 µM
same,TGI,[16],> 46.4 µM
same,TGI,[17],> 46.4 µM
same,TGI,[18],> 46.4 µM
same,TGI,[19],> 46.4 µM
same,TGI,[20],> 100 µM
same,TGI,[21],> 46.4 µM
same,TGI,[22],> 46.4 µM
same,TGI,[23],> 46.4 µM
same,TGI,[24],> 46.4 µM
same,TGI,[25],> 46.4 µM
same,TGI,[26],> 31.6 µM
same,TGI,[27],> 71.4 µM
same,TGI,[58],> 67 µM
same,TGI,[29],> 100 µM
same,TGI,[30],> 100 µM
same,TGI,[31],> 69.1 µM
same,TGI,[32],22.8 µM
same,TGI,[33],> 46.4 µM
same,TGI,[35],> 46.4 µM
same,TGI,[36],> 31.6 µM
same,TGI,[37],> 100 µM
same,TGI,[38],> 46.4 µM
same,TGI,[39],> 100 µM
same,TGI,[40],> 100 µM
same,TGI,[41],> 46.4 µM
same,TGI,[42],> 46.4 µM
same,TGI,[43],> 46.4 µM
same,TGI,[44],> 31.6 µM
same,TGI,[45],> 100 µM
same,TGI,[46],> 46.4 µM
same,TGI,[47],> 100 µM
same,TGI,[48],> 46.4 µM
same,TGI,[49],> 46.4 µM
same,TGI,[59],> 46.4 µM
same,TGI,[50],> 46.4 µM
same,TGI,[51],> 46.4 µM
same,TGI,[52],> 46.4 µM
same,TGI,[53],> 46.4 µM
same,TGI,[54],> 100 µM
same,TGI,[55],> 31.6 µM
Cn1c2ccccc2c2ccc3c(c21)C(=O)C(c1ccccc1)=CC3=O,TGI,[1],> 100 µM
same,TGI,[2],> 100 µM
same,TGI,[4],33.5 µM
same,TGI,[5],> 100 µM
same,TGI,[6],79.2 µM
same,TGI,[7],64.6 µM
same,TGI,[9],40.7 µM
same,TGI,[10],84.4 µM
same,TGI,[56],52.3 µM
same,TGI,[11],> 100 µM
same,TGI,[12],45.3 µM
same,TGI,[13],42.6 µM
same,TGI,[14],> 100 µM
same,TGI,[57],40.2 µM
same,TGI,[15],> 100 µM
same,TGI,[16],> 100 µM
same,TGI,[17],> 100 µM
same,TGI,[19],51 µM
same,TGI,[20],> 100 µM
same,TGI,[21],> 100 µM
same,TGI,[22],> 100 µM
same,TGI,[23],> 100 µM
same,TGI,[24],> 100 µM
same,TGI,[25],> 100 µM
same,TGI,[26],> 100 µM
same,TGI,[28],56.2 µM
same,TGI,[30],> 100 µM
same,TGI,[32],99.2 µM
same,TGI,[33],47.2 µM
same,TGI,[35],32.8 µM
same,TGI,[36],5.51 µM
same,TGI,[38],87.5 µM
same,TGI,[39],> 100 µM
same,TGI,[40],> 100 µM
same,TGI,[41],> 100 µM
same,TGI,[42],59.9 µM
same,TGI,[44],56.4 µM
same,TGI,[45],> 100 µM
same,TGI,[46],> 100 µM
same,TGI,[47],> 100 µM
same,TGI,[48],39.3 µM
same,TGI,[49],22.2 µM
same,TGI,[59],38.2 µM
same,TGI,[50],> 100 µM
same,TGI,[51],> 100 µM
same,TGI,[52],43.2 µM
same,TGI,[53],84 µM
same,TGI,[54],75.2 µM
same,TGI,[55],> 100 µM
COCN(C)c1nc(N(C)C)nc(N(C)C)n1,TGI,[1],> 100 µM
same,TGI,[2],> 100 µM
same,TGI,[3],> 100 µM
same,TGI,[4],> 100 µM
same,TGI,[5],> 100 µM
same,TGI,[6],> 100 µM
same,TGI,[7],> 100 µM
same,TGI,[8],> 100 µM
same,TGI,[10],> 100 µM
same,TGI,[56],> 100 µM
same,TGI,[11],> 100 µM
same,TGI,[12],> 100 µM
same,TGI,[13],> 100 µM
same,TGI,[14],> 100 µM
same,TGI,[57],37 µM
same,TGI,[15],> 100 µM
same,TGI,[16],> 100 µM
same,TGI,[17],> 100 µM
same,TGI,[18],> 100 µM
same,TGI,[19],> 100 µM
same,TGI,[20],> 100 µM
same,TGI,[21],> 100 µM
same,TGI,[22],> 100 µM
same,TGI,[23],> 100 µM
same,TGI,[24],> 100 µM
same,TGI,[25],> 100 µM
same,TGI,[26],> 100 µM
same,TGI,[27],> 100 µM
same,TGI,[28],> 100 µM
same,TGI,[29],> 100 µM
same,TGI,[30],> 100 µM
same,TGI,[31],> 100 µM
same,TGI,[32],> 100 µM
same,TGI,[33],> 100 µM
same,TGI,[35],> 100 µM
same,TGI,[36],> 100 µM
same,TGI,[37],> 100 µM
same,TGI,[38],> 100 µM
same,TGI,[39],> 100 µM
same,TGI,[40],> 100 µM
same,TGI,[41],> 100 µM
same,TGI,[42],> 100 µM
same,TGI,[43],> 100 µM
same,TGI,[44],> 100 µM
same,TGI,[45],> 100 µM
same,TGI,[46],> 100 µM
same,TGI,[47],> 100 µM
same,TGI,[48],> 100 µM
same,TGI,[49],> 100 µM
same,TGI,[59],> 100 µM
same,TGI,[50],> 100 µM
same,TGI,[51],> 100 µM
same,TGI,[52],> 100 µM
same,TGI,[53],> 100 µM
same,TGI,[54],> 100 µM
same,TGI,[55],> 100 µM

# — PubChem BioAssay (NCI)
